{"source": "ChEMBL document CHEMBL5257093", "about": "“3-Arylidene-2-oxindoles as GSK3β inhibitors and anti-thrombotic agents” (Bioorg Med Chem Lett, 2023)", "key": {"[1]": {"molecular_target": "Glycogen synthase kinase-3 beta (Homo sapiens, UniProt P49841)", "sequence (P49841 whole entry, the tested form may be a part)": "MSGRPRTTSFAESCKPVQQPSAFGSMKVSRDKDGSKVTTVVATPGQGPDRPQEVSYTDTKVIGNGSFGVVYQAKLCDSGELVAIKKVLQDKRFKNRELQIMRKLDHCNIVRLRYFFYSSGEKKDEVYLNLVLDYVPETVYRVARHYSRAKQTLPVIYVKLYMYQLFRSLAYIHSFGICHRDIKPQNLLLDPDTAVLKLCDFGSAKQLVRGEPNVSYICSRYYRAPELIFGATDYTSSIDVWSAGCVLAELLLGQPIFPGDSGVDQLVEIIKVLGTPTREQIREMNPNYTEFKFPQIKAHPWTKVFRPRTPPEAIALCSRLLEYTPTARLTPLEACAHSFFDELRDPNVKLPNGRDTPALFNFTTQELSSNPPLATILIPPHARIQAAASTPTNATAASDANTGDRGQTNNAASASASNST", "assay": "Inhibition of recombinant human GSK3beta […] assessed as reduction in human muscle glycogen synthase type 1 fragment phosphorylation using YRRAAVPPSPSLSRHSSPHQ(pS)EDE as substrate in presence of ATP incubated for 60 mins by ADP-Glo kinase assay"}, "[2]": {"species_on_record": "Homo sapiens", "assay": "Antiplatelet activity in platelet rich plasma (unknown origin) assessed as inhibition of ADP-induced platelet aggregation incubated for 5 mins by aggregometer analysis", "type": "functional"}, "[3]": {"species_on_record": "Homo sapiens", "assay": "Antiplatelet activity in platelet rich plasma (unknown origin) assessed as inhibition of collagen-induced platelet aggregation incubated for 5 mins by aggregometer analysis", "type": "functional"}, "[4]": {"system": "Peritoneal macrophage", "assay": "(§1) Cytotoxicity against mouse Peritoneal macrophages assessed as LDH release by LDH assay", "type": "toxicity, cell-based", "conditions": "peritoneal macrophage"}, "[5]": {"species_on_record": "Homo sapiens", "assay": "cells", "conditions": "Platelet, Plasma, 5 min, read-out: INH", "description": "Antiplatelet activity in platelet rich plasma (unknown origin) assessed as inhibition of ADP-induced platelet aggregation at 100 uM incubated for 5 mins by aggregometer analysis"}, "[6]": {"species_on_record": "Homo sapiens", "assay": "cells", "conditions": "Platelet, Plasma, 5 min, read-out: INH", "remark": "listed apart in the source", "description": "Antiplatelet activity in platelet rich plasma (unknown origin) assessed as inhibition of ADP-induced platelet aggregation at 10 uM incubated for 5 mins by aggregometer analysis"}, "[7]": {"species_on_record": "Homo sapiens", "assay": "cells", "conditions": "Platelet, Plasma, 5 min, read-out: INH", "remark": "listed apart in the source", "description": "Antiplatelet activity in platelet rich plasma (unknown origin) assessed as inhibition of ADP-induced platelet aggregation at 1 uM incubated for 5 mins by aggregometer analysis"}, "[8]": {"assay": "as §1", "type": "toxicity, cell-based, Peritoneal macrophage", "conditions": "peritoneal macrophages"}, "[9]": {"system": "Rattus norvegicus", "assay": "Antithrombotic activity FeCl3-induced carotid artery thrombosis rat model assessed as prolongation of artery occlusion time pretreated dosed IG for 2 hrs followed by 50% FeCl3 application", "type": "functional", "conditions": "po"}}, "data": [{"smiles": "O=C1Nc2ccccc2/C1=C\\c1ccc(O)cc1", "values": [{"measurement": "IC50", "setting": "[1]", "value": "> 50", "unit": "µM"}]}, {"smiles": "O=C1Nc2ccccc2C12CC2c1ccccn1", "note": "(stereo not given)", "values": [{"measurement": "IC50", "setting": "[2]; read-out: IC50", "value": 8.9, "unit": "µM"}, {"measurement": "IC50", "setting": "[3]; read-out: IC50", "value": 37, "unit": "µM"}, {"measurement": "CC50", "setting": "[4]", "value": "> 100", "unit": "µM"}]}, {"smiles": "Nc1ccc(CC2C(=O)Nc3ccccc32)cc1", "note": "(stereo not given)", "values": [{"measurement": "IC50", "setting": "[1]", "value": 50, "unit": "µM"}]}, {"smiles": "Cc1ccc(C(=O)CC2(O)C(=O)Nc3ccc(NC(=O)c4ccccc4)cc32)cc1", "note": "(stereo not given)", "values": [{"measurement": "IC50", "setting": "[1]", "value": 1.72, "unit": "µM"}]}, {"smiles": "O=C1Nc2ccc([N+](=O)[O-])cc2/C1=C\\c1cccnc1", "values": [{"measurement": "IC50", "setting": "[1]", "value": 20, "unit": "µM"}]}, {"smiles": "O=C1Nc2ccc(NC(=O)c3ccccc3)cc2/C1=C\\c1ccc(O)cc1", "values": [{"measurement": "IC50", "setting": "[2]; read-out: IC50", "value": 18.5, "unit": "µM"}, {"measurement": "IC50", "setting": "[3]; read-out: IC50", "value": 46.7, "unit": "µM"}, {"measurement": "CC50", "setting": "[4]", "value": "> 100", "unit": "µM"}, {"measurement": "inhibition at 100 µM", "setting": "[5]", "value": 72.3, "unit": "%"}, {"measurement": "inhibition at 10 µM", "setting": "[6]", "value": 37.2, "unit": "%"}, {"measurement": "inhibition at 1 µM", "setting": "[7]", "value": 19.3, "unit": "%"}]}, {"smiles": "COCC(=O)c1[nH]ncc1/C=C1\\C(=O)Nc2ccccc21", "values": [{"measurement": "IC50", "setting": "[1]", "value": 6.72, "unit": "µM"}]}, {"smiles": "CC(=O)Nc1ccc2c(c1)/C(=C\\c1cccnc1)C(=O)N2", "values": [{"measurement": "IC50", "setting": "[1]", "value": "> 50", "unit": "µM"}]}, {"smiles": "CN1C(=O)/C(=C/c2ccccn2)c2ccccc21", "values": [{"measurement": "IC50", "setting": "[1]", "value": "> 50", "unit": "µM"}]}, {"smiles": "COC(=O)Nc1ccc2c(c1)/C(=C\\c1ccc([N+](=O)[O-])cc1)C(=O)N2", "values": [{"measurement": "IC50", "setting": "[1]", "value": 0.348, "unit": "µM"}]}, {"smiles": "Cn1cc(/C=C2/C(=O)Nc3ccccc32)cn1", "values": [{"measurement": "IC50", "setting": "[1]", "value": 13.5, "unit": "µM"}]}, {"smiles": "CCOC(=O)c1[nH]ncc1/C=C1\\C(=O)Nc2ccc([N+](=O)[O-])cc21", "values": [{"measurement": "IC50", "setting": "[1]", "value": 1.77, "unit": "µM"}]}, {"smiles": "Nc1ccc2c(c1)C(Cc1ccccn1)C(=O)N2", "note": "(stereo not given)", "values": [{"measurement": "IC50", "setting": "[1]", "value": "> 50", "unit": "µM"}]}, {"smiles": "COC(=O)Nc1ccc2c(c1)/C(=C\\c1ccc(O)cc1)C(=O)N2", "values": [{"measurement": "IC50", "setting": "[2]; read-out: IC50", "value": 13.5, "unit": "µM"}, {"measurement": "IC50", "setting": "[3]; read-out: IC50", "value": "> 100", "unit": "µM"}, {"measurement": "CC50", "setting": "[4]", "value": "> 100", "unit": "µM"}]}, {"smiles": "O=C1Nc2ccccc2C1Cc1cccnc1", "note": "(stereo not given)", "values": [{"measurement": "IC50", "setting": "[1]", "value": 0.0042, "unit": "µM"}, {"measurement": "IC50", "setting": "[3]; read-out: IC50", "value": 3, "unit": "µM"}, {"measurement": "CC50", "setting": "[8]", "value": "> 100", "unit": "µM"}, {"measurement": "ED50", "setting": "[9]", "value": 7.3, "unit": "mg/kg"}, {"measurement": "inhibition at 100 µM", "setting": "[5]", "value": 75.6, "unit": "%"}, {"measurement": "inhibition at 10 µM", "setting": "[6]", "value": 55.6, "unit": "%"}, {"measurement": "inhibition at 1 µM", "setting": "[7]", "value": 26.5, "unit": "%"}]}, {"smiles": "CC(=O)Nc1ccc2c(c1)/C(=C\\c1ccc(O)cc1)C(=O)N2", "values": [{"measurement": "IC50", "setting": "[1]", "value": 34.4, "unit": "µM"}]}, {"smiles": "Cc1n[nH]cc1/C=C1/C(=O)Nc2ccccc21", "values": [{"measurement": "IC50", "setting": "[1]", "value": 5.68, "unit": "µM"}]}, {"smiles": "CC(=O)Oc1ccccc1C(=O)O", "note": "[ASPIRIN]", "values": [{"measurement": "IC50", "setting": "[2]", "value": 81, "unit": "µM"}, {"measurement": "IC50", "setting": "[3]", "value": 4.5, "unit": "µM"}, {"measurement": "ED50", "setting": "[9]", "value": 137, "unit": "mg/kg"}]}]}
